Experimental data taken from patent publication US9580432B2, “Fused pyrimidine compound or salt thereof” (TAIHO PHARMACEUTICAL CO., LTD., priority 2013, dated 2017).

target: purified recombinant human BTK protein (Homo sapiens (Human), UniProt Q06187); assay: Measurement of BTK inhibitory activity (in vitro); format: biochemical; conditions: FL-PEPTIDE 2 substrate 1 μM, ATP 45 μM, 40 minutes at 25° C.
Excerpt: With regard to the setting of the conditions for a method for measuring the inhibitory activity of a compound against BTK kinase activity in vitro, it is described in the consumable reagent supplies price list for LabChip (registered trademark) series of PerkinElmer, Inc. that FL-PEPTIDE 2 corresponds to a substrate peptide for the measurement of BTK kinase activity. Therefore, FL-PEPTIDE 2 was used as a substrate. The purified recombinant human BTK protein used in the test was purchased from Carna Biosciences, Inc.
With regard to the measurement of the inhibitory activity of the compounds, firstly, the compounds of the present invention were diluted stepwise with dimethyl sulfoxide (DMSO). Subsequently, BTK protein, a substrate peptide (final concentration was 1 μM), magnesium chloride (final concentration was 10 mM), ATP (final concentration was 45 μM), and a DMSO solution of the compounds of the present invention (final concentration of DMSO was 5%) were added to a buffer solution for kinase reaction (20 mM HEPES (pH 7.5), 2 mM dithiotheitol, 0.01% Triton X-100), and after the solution was incubated for 40 minutes at 25° C., a kinase reaction was carried out. The reaction was terminated by adding EDTA thereto in order to obtain a final concentration of 30 mM. Finally, a substrate peptide that was not phosphorylated (S) and a phosphorylated peptide (P) were separated and detected by microchannel capillary electrophoresis using a LabChip EZ Reader II (PerkinElmer, Inc.).

Sequence of purified recombinant human BTK protein (Q06187 whole entry): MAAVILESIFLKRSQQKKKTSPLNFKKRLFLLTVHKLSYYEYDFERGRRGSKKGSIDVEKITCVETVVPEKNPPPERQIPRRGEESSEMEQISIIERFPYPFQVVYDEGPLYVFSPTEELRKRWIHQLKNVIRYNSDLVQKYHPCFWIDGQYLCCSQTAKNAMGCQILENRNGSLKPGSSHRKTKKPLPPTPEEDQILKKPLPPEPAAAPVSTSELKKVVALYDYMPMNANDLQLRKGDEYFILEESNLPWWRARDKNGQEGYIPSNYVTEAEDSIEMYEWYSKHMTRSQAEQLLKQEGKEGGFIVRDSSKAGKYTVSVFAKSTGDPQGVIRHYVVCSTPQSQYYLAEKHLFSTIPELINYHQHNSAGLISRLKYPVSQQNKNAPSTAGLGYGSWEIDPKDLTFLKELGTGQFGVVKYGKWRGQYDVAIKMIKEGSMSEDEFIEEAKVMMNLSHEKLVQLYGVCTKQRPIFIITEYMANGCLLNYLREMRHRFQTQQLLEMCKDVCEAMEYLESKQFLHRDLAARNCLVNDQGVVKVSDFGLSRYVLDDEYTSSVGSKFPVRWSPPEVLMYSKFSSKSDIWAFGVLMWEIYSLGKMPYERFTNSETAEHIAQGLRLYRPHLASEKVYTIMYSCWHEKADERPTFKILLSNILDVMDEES

Row | IC50 [nM] | SMILES
1 | 0.443 | C=CC(=O)N1CCC[C@@H](n2nc(C(=O)Nc3nc4cc(-c5cccs5)ccc4o3)c3c(N)ncnc32)C1 [Example 3, (R)-1-(1-acryloylpiperidin-3-yl)-4-amino-N-(5-(thiophen-2-yl)benzo[d]oxazol-2-yl)-1H-pyrazolo[3,4-d]pyrimidine-3-carboxamide]
2 | 1.67 | C=CC(=O)N1CC[C@@H](n2nc(C(=O)Nc3nc4cc(-c5ccc(Cl)cc5)ccc4o3)c3c(N)ncnc32)C1 [Example 31, (R)-1-(1-acryloylpyrrolidin-3-yl)-4-amino-N-(5-(4-chlorophenyl)benzo[d]oxazol-2-yl)-1H-pyrazolo[3,4-d]pyrimidine-3-carboxamide]
3 | 0.887 | CCN(C)C/C=C/C(=O)N1CC[C@@H](n2nc(C(=O)Nc3nc4cc(Cl)ccc4o3)c3c(N)ncnc32)C1 [Example 33, (R,E)-4-amino-N-(5-chlorobenzo[d]oxazol-2-yl)-1-(1-(4-(ethyl(methyl)amino)but-2-enoyl)pyrrolidin-3-yl)-1H-pyrazolo[3,4-d]pyrimidine-3-carboxamide]
4 | 0.546 | C=CC(=O)N1CC[C@@H](n2nc(C(=O)Nc3nc4cc(C(F)(F)F)ccc4o3)c3c(N)ncnc32)C1 [Example 43, (R)-1-(1-acryloylpyrrolidin-3-yl)-4-amino-N-(5-(trifluoromethyl)benzo[d]oxazol-2-yl)-1H-pyrazolo[3,4-d]pyrimidine-3-carboxamide]
5 | 0.799 | C=CC(=O)N1CC[C@@H](n2cc(C(=O)Nc3nc4cc(-c5ccccc5)ccc4o3)c3c(N)ncnc32)C1 [Example 55, (R)-7-(1-acryloylpyrrolidin-3-yl)-4-amino-N-(5-phenylbenzo[d]oxazol-2-yl)-7H-pyrrolo[2,3-d]pyrimidine-5-carboxamide]
6 | 1.84 | CCN(CC)C/C=C/C(=O)N1CC[C@@H](n2cc(C(=O)Nc3nc4cc(-c5ccccc5)ccc4o3)c3c(N)ncnc32)C1 [Example 58, (R,E)-4-amino-N-(5-phenylbenzo[d]oxazol-2-yl)-7-(1-(4-(diethylamino)but-2-enoyl)pyrrolidin-3-yl) 7H-pyrrolo[2,3-d]pyrimidine-5-carboxamide]
7 | 79 | C=CC(=O)N1CC[C@H](n2nc(C(=O)Nc3nc4ccccc4o3)c3c(N)ncnc32)C1 [Example 65, (S)-1-(1-acryloylpyrrolidin-3-yl)-4-amino-N-(benzo[d]oxazol-2-yl)-1H-pyrazolo[3,4-d]pyrimidine-3-carboxamide]
8 | 31.4 | CC1=CC(C)=[N+]2C1=Cc1ccc(CCC(=O)NCCN3CCN(C/C=C/C(=O)N4CCC[C@@H](n5nc(C(=O)Nc6nc7ccccc7o6)c6c(N)ncnc65)C4)CC3)n1[B-]2(F)F [Example P-1, (R,E)-7-(3-((2-(4-(4-(3-(4-amino-3-(benzo[d]oxazol-2-ylcarbamoyl)-1H-pyrazolo[3,4-d]pyrimidin-1-yl)piperidin-1-yl)-4-oxobut-2-en-1-yl)piperazin-1-yl)ethyl)amino)-3-oxopropyl) 5,5-difluoro-1,3-dimethyl-5H-dipyrrolo[1,2-c:2′,1′-f][1,3,2]diazaborinin-4-ium-5-uide]

Row | SMILES | IC50 [nM]
9 | C=CC(=O)N1CCC[C@@H](n2nc(C(=O)Nc3nc4cc(Cl)ccc4o3)c3c(N)ncnc32)C1 [Example 1, (R)-1-(1-acryloylpiperidin-3-yl)-4-amino-N-(5-chlorobenzo[d]oxazol-2-yl)-1H-pyrazolo[3,4-d]pyrimidine-3-carboxamide] | 0.415
10 | C=CC(=O)N1CCC[C@@H](n2nc(C(=O)Nc3nc4cccc(Cl)c4o3)c3c(N)ncnc32)C1 [Example 64, (R)-1-(1-acryloylpiperidin-3-yl)-4-amino-N-(7-chlorobenzo[d]oxazol-2-yl)-1H-pyrazolo[3,4-d]pyrimidine-3-carboxamide] | 8.09
11 | C=CC(=O)N1CCC(n2nc(C(=O)Nc3nc4ccccc4o3)c3c(N)ncnc32)CC1 [Example 69, 1-(1-acryloylpiperidin-4-yl)-4-amino-N-(benzo[d]oxazol-2-yl)-1H-pyrazolo[3,4-d]pyrimidine-3-carboxamide] | 162
12 | C=CC(=O)N1CC(n2nc(C(=O)Nc3nc4ccccc4o3)c3c(N)ncnc32)C1 [Example 74, 1-(1-acryloylazetidin-3-yl)-4-amino-N-(benzo[d]oxazol-2-yl)-1H-pyrazolo[3,4-d]pyrimidine-3-carboxamide] | 21.4
13 | Nc1ncnc2c1c(C(=O)Nc1nc3ccccc3o1)nn2[C@@H]1CCCN(C(=O)/C=C/CN2CCN(CCNC(=O)CCCC[C@@H]3SC[C@@H]4NC(=O)N[C@@H]43)CC2)C1 [Example P-2, 4-amino-N-(benzo[d]oxazol-2-yl)-1-((R)-1-((E)-4-(4-(2-(5-((3aS,4S,6aR)-2-oxohexahydro-1H-thieno[3,4-d]imidazol-4-yl)pentanamido)ethyl)piperazin-1-yl)but-2-enoyl)piperidin-3-yl)-1H-pyrazolo[3,4-d]pyrimidine-3-carboxamide] | 43.9

test system: A431 cells / TMD8 cells; assay: Proliferation inhibitory activity against cell lines expressing BTK and EGFR (in vitro), comparison of selectivity; format: cell-based, human; conditions: ratio from GI50 (nM), 3 days culture, CELLTITER GLO
Excerpt: TMD8 cells, which are of a diffuse large B-cell lymphoma cell line expressing BTK, were suspended in RPMI1640 medium (manufactured by Life Technologies Corp.) containing 10% fetal bovine serum. A431 cells, which are of an EGFR-overexpressing, highly activated human epidermoid carcinoma cell line, were suspended in DMEM, high glucose medium (manufactured by Life Technologies Corp.) containing 10% fetal bovine serum. The cell suspensions were inoculated into each well of 384-well flat-bottomed microplates, and the cells were cultured for 1 day at 37° C. in an incubator containing 5% carbon dioxide gas. […] A DMSO solution of the test compounds was diluted with the medium used in the suspension of the each cells, and this was added to each of the wells of the cell culture plates such that the final concentration of DMSO would be 0.2%. The cells were further cultured for 3 days at 37° C. in an incubator containing 5% carbon dioxide gas. […] Proliferation inhibition ratio (%)=(C−T)/(C−C0)×100
T: Luminescence intensity of a well in which the test compound was added
C: Luminescence intensity of a well in which the test compound was not added
C0: Luminescence intensity of a well measured before the addition of the test compound
When a comparison is made between the cell proliferation inhibitory activity against A431 cells that depends on the EGFR proliferation signaling and the cell proliferation inhibitory activity against TMD8 cells that depends on the BTK proliferation signaling, the influence of the respective kinases at a cellular level is able to be evaluated. That is, when the “A431 cell proliferation inhibition ratio/TMD8 cell proliferation inhibition ratio” is calculated, it is contemplated that as the value of the ratio is larger, the selectivity to BTK over EGFR in the cells is higher.

Row | SMILES | A431 cell proliferation inhibition ratio/TMD8 cell proliferation inhibitio ratio
14 | C=CC(=O)N1CCC[C@@H](n2nc(C(=O)Nc3nc4cc(Cl)ccc4o3)c3c(N)ncnc32)C1 [Example 1, (R)-1-(1-acryloylpiperidin-3-yl)-4-amino-N-(5-chlorobenzo[d]oxazol-2-yl)-1H-pyrazolo[3,4-d]pyrimidine-3-carboxamide] | 1062.9
15 | C=CC(=O)N1CCC[C@@H](n2nc(C(=O)Nc3nc4cc(OC)ccc4o3)c3c(N)ncnc32)C1 [Example 7, (R)-1-(1-acryloylpiperidin-3-yl)-4-amino-N-(5-methoxybenzo[d]oxazol-2-yl)-1H-pyrazolo[3,4-d]pyrimidine-3-carboxamide] | 5440.9
16 | C=CC(=O)N1CCC[C@@H](n2nc(C(=O)Nc3nc4cc(CCOC)ccc4o3)c3c(N)ncnc32)C1 [Example 8, (R)-1-(1-acryloylpiperidin-3-yl)-4-amino-N-(5-(2-methoxyethyl)benzo[d]oxazol-2-yl)-1H-pyrazolo[3,4-d]pyrimidine-3-carboxamide] | 25303.8
17 | C/C=C/C(=O)N1CCC[C@@H](n2nc(C(=O)Nc3nc4ccccc4o3)c3c(N)ncnc32)C1 [Example 14, (R,E)-4-amino-N-(benzo[d]oxazol-2-yl)-1-(1-(but-2-enoyl)piperidin-3-yl)-1H-pyrazolo[3,4-d]pyrimidine-3-carboxamide] | >1400.6
18 | CN(C)C/C=C/C(=O)N1CCC[C@@H](n2nc(C(=O)Nc3nc4cc(-c5cccs5)ccc4o3)c3c(N)ncnc32)C1 [Example 21, (R,E)-4-amino-N-(5-(thiophen-2-yl)benzo[d]oxazol-2-yl)-1-(1-(4-(dimethylamino)but-2-enoyl)piperidin-3-yl)-1H-pyrazolo[3,4-d]pyrimidine-3-carboxamide] | 4909.1
19 | C=CC(=O)N1CC[C@@H](n2nc(C(=O)Nc3nc4ccccc4o3)c3c(N)ncnc32)C1 [Example 27, (R)-1-(1-acryloylpyrrolidin-3-yl)-4-amino-N-(benzo[d]oxazol-2-yl)-1H-pyrazolo[3,4-d]pyrimidine-3-carboxamide] | 4155.9
20 | C=CC(=O)N1CC[C@@H](n2nc(C(=O)Nc3nc4cc(OC)ccc4o3)c3c(N)ncnc32)C1 [Example 38, (R)-1-(1-acryloylpyrrolidin-3-yl)-4-amino-N-(5-methoxybenzo[d]oxazol-2-yl)-1H-pyrazolo[3,4-d]pyrimidine-3-carboxamide] | 2868.1
21 | C=CC(=O)N1CC[C@@H](n2nc(C(=O)Nc3nc4cc(-c5ccccc5)ccc4o3)c3c(N)ncnc32)C1 [Example 41, (R)-1-(1-acryloylpyrrolidin-3-yl)-4-amino-N-(5-phenylbenzo[d]oxazol-2-yl)-1H-pyrazolo[3,4-d]pyrimidine-3-carboxamide] | 1667.7
22 | C=CC(=O)N1CCC(n2nc(C(=O)Nc3nc4cc(Cl)ccc4o3)c3c(N)ncnc32)C1 (stereo not shown) [Example 84, 1-(1-acryloylpyrrolidin-3-yl)-4-amino-N-(5-chlorobenzo[d]oxazol-2-yl)-1H-pyrazolo[3,4-d]pyrimidine-3-carboxamide] | >7132.7
